Reference: US8637525B2, “Compounds for the reduction of beta-amyloid production” (Bristol-Myers Squibb Company, priority 2009, dated 2014)
pIC50: −log10 of the molar value. Like-named read-outs stand apart in the source and are kept apart here.

System: Aβ1-42 production
Test: Cellular assay for inhibition of Aβ1-42 production (H4 APP751 SWE clone 8.20)
Assay type: cell-based
Details: H4 APP751 SWE clone 8.20 cells, 19 h incubation
Summary of the method: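 19 h cell treatment, 37 °C/5% CO2. Detection of secreted Aβ42 in the cell plate: 565 (Aβ42-specific, Wallac) and 26D6 (N-terminal, APC), overnight 4 °C. IC50 from fitted curves.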

[1] = class symbols, read-out: Activity Rating (Aβ42 cellular IC50)
[2] = 19 h, read-out: Activity Rating (Aβ42 cellular IC50), numeric value
[3] = 19 h, class symbols, read-out: Activity Rating (Aβ42 cellular IC50)

Row | pIC50 [1] | pIC50 [3] | SMILES | also measured
1 | 8.00 to 8.82 |  | CCN(C)c1nc(Nc2ccc(-n3cnc(Cl)c3)c(OC)c2)nc2c1CCN(S(C)(=O)=O)C2c1ccc(F)cc1 (stereo not shown) [Example 172A, N2-(4-(4-chloro-1H-imidazol-1-yl)-3-methoxyphenyl)-N4-ethyl-8-(4-fluorophenyl)-N4-methyl-7-(methylsulfonyl)-5,6,7,8-tetrahydropyrido[3,4-d]pyrimidine-2,4-diamine] | 
2 | 6.00 to 7.00 |  | CCN(C)c1nc(Nc2ccc(-n3cnc(Cl)c3)c(OC)c2)nc2c1CCN(S(C)(=O)=O)C2c1ccc(F)cc1 (stereo not shown) [Example 172B, N2-(4-(4-chloro-1H-imidazol-1-yl)-3-methoxyphenyl)-N4-ethyl-8-(4-fluorophenyl)-N4-methyl-7-(methylsulfonyl)-5,6,7,8-tetrahydropyrido[3,4-d]pyrimidine-2,4-diamine] | 
3 | 8.00 to 8.82 |  | COc1cc(Nc2nc3c(c(N4CC(Cl)C4)n2)CCC3c2ccccc2)ccc1-n1cnc(Cl)c1 (stereo not shown) [Example 181A, N-(4-(4-chloro-1H-imidazol-1-yl)-3-methoxyphenyl)-4-(3-chloroazetidin-1-yl)-7-phenyl-6,7-dihydro-5H-cyclopenta[d]pyrimidin-2-amine] | 
4 | 8.00 to 8.82 |  | COc1cc(Nc2nc3c(c(N4CC(F)C4)n2)CCC3c2ccccc2)ccc1-n1cnc(Cl)c1 (stereo not shown) [Example 182A, N-(4-(4-chloro-1H-imidazol-1-yl)-3-methoxyphenyl)-4-(3-fluoroazetidin-1-yl)-7-phenyl-6,7-dihydro-5H-cyclopenta[d]pyrimidin-2-amine] | 
5 | 7.00 to 8.00 |  | COc1cc(Nc2nc3c(c(N4CC(F)C4)n2)CCC3c2ccccc2)ccc1-n1cnc(Cl)c1 (stereo not shown) [Example 182B, N-(4-(4-chloro-1H-imidazol-1-yl)-3-methoxyphenyl)-4-(3-fluoroazetidin-1-yl)-7-phenyl-6,7-dihydro-5H-cyclopenta[d]pyrimidin-2-amine] | 
6 | 8.00 to 8.82 |  | COc1cc(Nc2nc3c(c(N4CC(C)(O)C4)n2)CCC3c2ccc(F)cc2)ccc1-n1cnc(Cl)c1 (stereo not shown) [Example 189A, 1-(2-(4-(4-chloro-1H-imidazol-1-yl)-3-methoxyphenylamino)-7-(4-fluorophenyl)-6,7-dihydro-5H-cyclopenta[d]pyrimidin-4-yl)-3-methylazetidin-3-ol] | 
7 | 7.00 to 8.00 |  | COc1cc(Nc2nc3c(c(N4CC(C)(O)C4)n2)CCC3c2ccc(F)cc2)ccc1-n1cnc(Cl)c1 (stereo not shown) [Example 189B, 1-(2-(4-(4-chloro-1H-imidazol-1-yl)-3-methoxyphenylamino)-7-(4-fluorophenyl)-6,7-dihydro-5H-cyclopenta[d]pyrimidin-4-yl)-3-methylazetidin-3-ol] | 

Second part, the molecule before the results:

Row | SMILES | pIC50 [1] | pIC50 [3] | also measured
8 | COc1cc(Nc2nc3c(c(N4CC[C@@H](F)C4)n2)CCN(S(C)(=O)=O)C3c2ccc(F)cc2)ccc1-n1cnc(Cl)c1 (stereo partly shown) [Example 173] |  |  | pIC50 [2]: 6.31
9 | COc1cc(Nc2nc3c(c(N4CC[C@@H](F)C4)n2)CCN(S(C)(=O)=O)C3c2ccc(F)cc2)ccc1-n1cnc(Cl)c1 (stereo partly shown) [Example 174] |  | 7.00 to 8.00 | 
10 | CCNc1nc(Nc2ccc(-n3cnc(Cl)c3)c(OC)c2)nc2c1CCN(C)C2c1ccc(F)cc1 (stereo not shown) [Example 175, N2-(4-(4-chloro-1H-imidazol-1-yl)-3-methoxyphenyl)-N4-ethyl-8-(4-fluorophenyl)-7-methyl-5,6,7,8-tetrahydropyrido[3,4-d]pyrimidine-2,4-diamine] |  | 7.00 to 8.00 | 
11 | [2H]C([2H])([2H])Nc1nc(Nc2ccc(-n3cnc(Cl)c3)c(OC)c2)nc2c1CCC2c1ccccc1 (stereo not shown) [Example 176, N^2-(4-(4-Chloro-1H-imidazol-1-yl)-3-methoxyphenyl)-N^4-trideuteromethyl-7-phenyl-6,7-dihydro-5H-cyclopenta[d]pyrimidine-2,4-diamine] |  | 8.00 to 8.82 | 
12 | CNc1nc(Nc2ccc(-n3cnc(Cl)c3)c(OC)c2)nc2c1C=CCC2(O)c1ccccc1 (stereo not shown) [Example 177, 2-(4-(4-chloro-1H-imidazol-1-yl)-3-methoxyphenylamino)-4-(methylamino)-8-phenyl-7,8-dihydroquinazolin-8-ol] |  | 7.00 to 8.00 | 
13 | CNc1nc(Nc2ccc(-n3cnc(Cl)c3)c(OC)c2)nc2c1CCCC2(O)c1ccccc1 (stereo not shown) [Example 178, 2-(4-(4-chloro-1H-imidazol-1-yl)-3-methoxyphenylamino)-4-(methylamino)-8-phenyl-5,6,7,8-tetrahydroquinazolin-8-ol] |  | 8.00 to 8.82 | 
14 | COc1cc(Nc2nc(N(C)C)c3c(n2)C(O)(c2ccccc2)CC3)ccc1-n1cnc(Cl)c1 (stereo not shown) [Example 179, 2-(4-(4-chloro-1H-imidazol-1-yl)-3-methoxyphenylamino)-4-(dimethylamino)-7-phenyl-6,7-dihydro-5H-cyclopenta[d]pyrimidin-7-ol] |  | 7.00 to 8.00 | 
15 | COc1cc(Nc2nc3c(c(N(C)C)n2)C[C@H](O)[C@H]3c2ccccc2)ccc1-n1cnc(Cl)c1 [Example 180, (6S,7S)-2-(4-(4-chloro-1H-imidazol-1-yl)-3-methoxyphenylamino)-4-(dimethylamino)-7-phenyl-6,7-dihydro-5H-cyclopenta[d]pyrimidin-6-ol] |  | 7.00 to 8.00 | 
16 | COc1cc(Nc2nc3c(c(N4CC(Cl)C4)n2)CCC3c2ccccc2)ccc1-n1cnc(Cl)c1 (stereo not shown) [Example 181, N-(4-(4-chloro-1H-imidazol-1-yl)-3-methoxyphenyl)-4-(3-chloroazetidin-1-yl)-7-phenyl-6,7-dihydro-5H-cyclopenta[d]pyrimidin-2-amine] | 7.00 to 8.00 |  | 
17 | COc1cc(Nc2nc3c(c(N4CC(Cl)C4)n2)CCC3c2ccccc2)ccc1-n1cnc(Cl)c1 (stereo not shown) [Example 181B, N-(4-(4-chloro-1H-imidazol-1-yl)-3-methoxyphenyl)-4-(3-chloroazetidin-1-yl)-7-phenyl-6,7-dihydro-5H-cyclopenta[d]pyrimidin-2-amine] |  |  | pIC50 [2]: 7.30
18 | COc1cc(Nc2nc3c(c(N4CC(F)C4)n2)CCC3c2ccccc2)ccc1-n1cnc(Cl)c1 (stereo not shown) [Example 182, N-(4-(4-chloro-1H-imidazol-1-yl)-3-methoxyphenyl)-4-(3-fluoroazetidin-1-yl)-7-phenyl-6,7-dihydro-5H-cyclopenta[d]pyrimidin-2-amine] | 7.00 to 8.00 |  | 
19 | COc1cc(Nc2nc3c(c(N4CC(OC)C4)n2)CCC3c2ccccc2)ccc1-n1cnc(Cl)c1 (stereo not shown) [Example 183, N-(4-(4-chloro-1H-imidazol-1-yl)-3-methoxyphenyl)-4-(3-methoxyazetidin-1-yl)-7-phenyl-6,7-dihydro-5H-cyclopenta[d]pyrimidin-2-amine] |  |  | pIC50 [2]: 7.96
20 | COc1cc(Nc2nc3c(c(N4CC5(C4)OCCO5)n2)CCC3c2ccccc2)ccc1-n1cnc(Cl)c1 (stereo not shown) [Example 184, N-(4-(4-chloro-1H-imidazol-1-yl)-3-methoxyphenyl)-7-phenyl-4-(5,8-dioxa-2-azaspiro[3.4]octan-2-yl)-6,7-dihydro-5H-cyclopenta[d]pyrimidin-2-amine] |  | 7.00 to 8.00 | 
21 | COc1cc(Nc2nc3c(c(N4CC(=O)C4)n2)CCC3c2ccccc2)ccc1-n1cnc(Cl)c1 (stereo not shown) [Example 185, 1-(2-(4-(4-chloro-1H-imidazol-1-yl)-3-methoxyphenylamino)-7-phenyl-6,7-dihydro-5H-cyclopenta[d]pyrimidin-4-yl)azetidin-3-one] |  | 7.00 to 8.00 | 
22 | COc1cc(Nc2nc3c(c(N4CC(C)(C#N)C4)n2)CCC3c2ccc(F)cc2)ccc1-n1cnc(Cl)c1 (stereo not shown) [Example 186, 1-(2-(4-(4-chloro-1H-imidazol-1-yl)-3-methoxyphenylamino)-7-(4-fluorophenyl)-6,7-dihydro-5H-cyclopenta[d]pyrimidin-4-yl)-3-methylazetidine-3-carbonitrile] |  | 7.00 to 8.00 | 
23 | CCOC1CN(c2nc(Nc3ccc(-n4cnc(Cl)c4)c(OC)c3)nc3c2CCC3c2ccc(F)cc2)C1 (stereo not shown) [Example 187, N-(4-(4-chloro-1H-imidazol-1-yl)-3-methoxyphenyl)-4-(3-ethoxyazetidin-1-yl)-7-(4-fluorophenyl)-6,7-dihydro-5H-cyclopenta[d]pyrimidin-2-amine] |  | 7.00 to 8.00 | 
24 | COc1cc(Nc2nc3c(c(N4CC5(CCCO5)C4)n2)CCC3c2ccccc2)ccc1-n1cnc(Cl)c1 (stereo not shown) [Example 188, N-(4-(4-chloro-1H-imidazol-1-yl)-3-methoxyphenyl)-7-phenyl-4-(5-oxa-2-azaspiro[3.4]octan-2-yl)-6,7-dihydro-5H-cyclopenta[d]pyrimidin-2-amine] |  |  | pIC50 [2]: 7.72
25 | COc1cc(Nc2nc3c(c(N4CC(C)(O)C4)n2)CCC3c2ccc(F)cc2)ccc1-n1cnc(Cl)c1 (stereo not shown) [Example 189, 1-(2-(4-(4-chloro-1H-imidazol-1-yl)-3-methoxyphenylamino)-7-(4-fluorophenyl)-6,7-dihydro-5H-cyclopenta[d]pyrimidin-4-yl)-3-methylazetidin-3-ol] | 8.00 to 8.82 |  | 
26 | COc1cc(Nc2nc3c(c(N4CC(C)(F)C4)n2)CCC3c2ccc(F)cc2)ccc1-n1cnc(Cl)c1 (stereo not shown) [Example 190, N-(4-(4-chloro-1H-imidazol-1-yl)-3-methoxyphenyl)-4-(3-fluoro-3-methylazetidin-1-yl)-7-(4-fluorophenyl)-6,7-dihydro-5H-cyclopenta[d]pyrimidin-2-amine] |  |  | pIC50 [2]: 7.43
27 | COc1cc(Nc2nc3c(c(N4CC(C)(OC)C4)n2)CCC3c2ccc(F)cc2)ccc1-n1cnc(Cl)c1 (stereo not shown) [Example 191, N-(4-(4-chloro-1H-imidazol-1-yl)-3-methoxyphenyl)-7-(4-fluorophenyl)-4-(3-methoxy-3-methylazetidin-1-yl)-6,7-dihydro-5H-cyclopenta[d]pyrimidin-2-amine] |  | 7.00 to 8.00 | 
28 | COc1cc(Nc2nc3c(c(N4CC(C)(OC)C4)n2)CCC3c2ccc(F)cc2)ccc1-n1cnc(Cl)c1 (stereo not shown) [Example 191B, N-(4-(4-chloro-1H-imidazol-1-yl)-3-methoxyphenyl)-7-(4-fluorophenyl)-4-(3-methoxy-3-methylazetidin-1-yl)-6,7-dihydro-5H-cyclopenta[d]pyrimidin-2-amine] |  |  | pIC50 [2]: 7.02
